Among the data in the supplement of paper PMC10307832 are relative viability values, retold here.

Assay in all cases: relative viability (nuclei count vs DMSO), 5 days (fraction); higher = more cells survive
Compound in assay [1]: NC(=O)c1ccc(N(C(N)=O)c2c(F)cccc2F)nc1-c1ccc(F)cc1F [VX-702] + Nc1nc2[nH]cc(CCc3ccc(C(=O)N[C@@H](CCC(=O)O)C(=O)O)cc3)c2c(=O)[nH]1 [Pemetrexed] (partner 0.2 µM)
In a few lines:
(§1)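 Values are medians from duplicate plates. Each reflects relative viability, defined as the nuclei count of treated wells over that of vehicle wells. Lung cancer cell lines in 1536-well plates were pin-tool dosed one day after seeding with one drug alone or with a fixed anchor-drug dose plus five library-drug doses (not always all listed) in √10 steps, then fixed, stained and imaged at 4× after 5 days.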

Compound in assay [2]: CC(C)(C)c1nc(-c2cccc(NS(=O)(=O)c3c(F)cccc3F)c2F)c(-c2ccnc(N)n2)s1 [Dabrafenib] + CC(=O)c1c(C)c2cnc(Nc3ccc(N4CCNCC4)cn3)nc2n(C2CCCC2)c1=O [Palbociclib] (partner 0.5 µM)
The method in brief: as §1

Compound in assay [3]: CC(C)(C)c1nc(-c2cccc(NS(=O)(=O)c3c(F)cccc3F)c2F)c(-c2ccnc(N)n2)s1 [Dabrafenib] + Cc1nc(NC(=O)N2CCC[C@H]2C(N)=O)sc1-c1ccnc(C(C)(C)C(F)(F)F)c1 [Alpelisib] (partner 2 µM)
In a few lines:
as §1

Compound in assay [4]: NC(=O)c1ccc(N(C(N)=O)c2c(F)cccc2F)nc1-c1ccc(F)cc1F [VX-702] + CS(=O)(=O)N1CCN(Cc2cc3nc(-c4cccc5[nH]ncc45)nc(N4CCOCC4)c3s2)CC1 [Pictilisib] (partner 1 µM)
In a few lines:
as §1

For the cell line RERF-LC-KJ, the relative viability in assay [1] (first compound 0.02 µM) turned out to be 0.504; in assay [1] (first compound 0.2 µM), 0.6; in assay [1] (first compound 0.6325 µM), 0.484; in assay [1] (first compound 2 µM), 0.454; in assay [2] (first compound 0.003 µM) it was 1.11; in assay [2] (first compound 0.009487 µM) it was 1.09. Further, the relative viability came out at 1.13 in assay [2] (first compound 0.03 µM); 1.02 in assay [2] (first compound 0.09487 µM); 1.13 in assay [2] (first compound 0.3 µM); 0.73 in assay [3] (first compound 0.003 µM); 0.979 in assay [3] (first compound 0.009487 µM); 0.781 in assay [3] (first compound 0.03 µM). Further, the relative viability in assay [3] (first compound 0.09487 µM) came out at 0.848; in assay [3] (first compound 0.3 µM) it was 0.953; in assay [4] (first compound 0.02 µM), 0.562; in assay [4] (first compound 0.2 µM), 0.435; in assay [4] (first compound 0.6325 µM), 0.625; in assay [4] (first compound 2 µM), 0.601.

On to SK-LU-1, for which the relative viability in assay [1] (first compound 0.02 µM) was 1.01; in assay [1] (first compound 0.2 µM), 0.965; in assay [1] (first compound 0.6325 µM) it was 0.936; in assay [1] (first compound 2 µM), 1.04; in assay [2] (first compound 0.009487 µM) it was 0.395; in assay [2] (first compound 0.03 µM) it was 0.238. Moreover, the relative viability in assay [2] (first compound 0.09487 µM) was determined as 0.365; in assay [2] (first compound 0.3 µM), 0.371; in assay [3] (first compound 0.003 µM), 0.915; in assay [3] (first compound 0.009487 µM) it was 1; in assay [3] (first compound 0.03 µM) it was 0.869; in assay [3] (first compound 0.09487 µM), 0.714. Also, the relative viability in assay [3] (first compound 0.3 µM) came out at 0.691; in assay [4] (first compound 0.02 µM) it was 0.647; in assay [4] (first compound 0.2 µM) it was 0.501; in assay [4] (first compound 0.6325 µM), 0.563; in assay [4] (first compound 2 µM), 0.645.

Take SK-MES-1: the relative viability in assay [1] (first compound 0.02 µM) worked out at 0.936; in assay [1] (first compound 0.2 µM), 0.89; in assay [1] (first compound 0.6325 µM), 0.891; in assay [1] (first compound 2 µM) it was 0.979; in assay [2] (first compound 0.009487 µM) it was 0.296; in assay [2] (first compound 0.03 µM) it was 0.27. Further, the relative viability in assay [2] (first compound 0.09487 µM) turned out to be 0.258; in assay [2] (first compound 0.3 µM) it was 0.31; in assay [3] (first compound 0.003 µM) it was 0.91; in assay [3] (first compound 0.009487 µM), 0.828; in assay [3] (first compound 0.03 µM) it was 0.933; in assay [3] (first compound 0.09487 µM), 0.683. Further, the relative viability is 0.611 in assay [3] (first compound 0.3 µM); 0.342 in assay [4] (first compound 0.02 µM); 0.293 in assay [4] (first compound 0.2 µM); 0.364 in assay [4] (first compound 0.6325 µM); 0.313 in assay [4] (first compound 2 µM).

Turning to SW 1573, the relative viability in assay [1] (first compound 0.02 µM) came to 0.759; in assay [1] (first compound 0.2 µM) it was 0.914; in assay [1] (first compound 0.6325 µM), 0.775; in assay [1] (first compound 2 µM), 0.741; in assay [2] (first compound 0.003 µM), 0.431; in assay [2] (first compound 0.009487 µM) it was 0.484. For the same cell line, the relative viability in assay [2] (first compound 0.03 µM) amounted to 0.363; in assay [2] (first compound 0.09487 µM), 0.349; in assay [2] (first compound 0.3 µM), 0.392; in assay [3] (first compound 0.003 µM), 0.765; in assay [3] (first compound 0.009487 µM), 0.931; in assay [3] (first compound 0.03 µM), 0.74. Further, the relative viability came to 0.663 in assay [3] (first compound 0.09487 µM); 0.669 in assay [3] (first compound 0.3 µM); 0.439 in assay [4] (first compound 0.02 µM); 0.388 in assay [4] (first compound 0.2 µM); 0.361 in assay [4] (first compound 0.6325 µM); 0.482 in assay [4] (first compound 2 µM).

Consider UMC-11, for which the relative viability in assay [1] (first compound 0.02 µM) is 0.908; in assay [1] (first compound 0.2 µM) it was 0.711; in assay [1] (first compound 0.6325 µM) it was 0.755; in assay [1] (first compound 2 µM), 0.922; in assay [2] (first compound 0.003 µM), 0.33; in assay [2] (first compound 0.009487 µM), 0.31. Also, the relative viability in assay [2] (first compound 0.03 µM) amounted to 0.288; in assay [2] (first compound 0.09487 µM), 0.327; in assay [2] (first compound 0.3 µM) it was 0.349; in assay [3] (first compound 0.003 µM), 1.08; in assay [3] (first compound 0.009487 µM), 1.01; in assay [3] (first compound 0.03 µM), 1. The relative viability came out at 0.937 in assay [3] (first compound 0.09487 µM); 0.935 in assay [3] (first compound 0.3 µM); 0.696 in assay [4] (first compound 0.02 µM); 0.762 in assay [4] (first compound 0.2 µM); 0.582 in assay [4] (first compound 0.6325 µM); 0.813 in assay [4] (first compound 2 µM).
